Results taken from US20240166652A1, “MODULATORS OF THE INTEGRATED STRESS PATHWAY” (Calico Life Sciences LLC, priority 2017, published 2024).

Tested on: ATF4 luciferase reporter in HEK293T cells
Assay: ATF4-Luc assay (ATF4 luciferase reporter, tunicamycin-treated HEK293T cells)
Type: cell-based, human
Settings: HEK293T cells carrying the ATF4 luciferase reporter, 1 μg/mL tunicamycin, 7 hours

SMILES	EC50 (Homo sapiens, HEK-293T) [µM]	EC50 [µM]
O=C(COc1ccc(Cl)c(Cl)c1)NC12CC(NCC(O)c3ccc(Cl)cc3)(C1)C2 (stereo not shown) [Compound 288, N-(3-{[2-(4-chlorophenyl)-2-hydroxyethyl]amino}bicyclo[1.1.1]pentan-1-yl)-2-(3,4-dichlorophenoxy)acetamide]	0.05 to 0.25	
O=C(COc1ccc(Cl)c(F)c1)NC12CCC(NC(=O)COc3ccc(Cl)c(F)c3)(CC1)C(C(=O)O)C2 (stereo not shown) [Compound 390, 1,4-bis[2-(4-chloro-3-fluorophenoxy)acetamido]bicyclo[2.2.2]octane-2-carboxylic Acid]	0.05 to 0.25	
O=C(COc1ccc(Cl)c(F)c1)NC12CC(NC(=O)Cc3cccnc3)(C1)C2 [Compound 458, 2-(4-chloro-3-fluorophenoxy)-N-{3-[2-(pyridin-3-yl)acetamido]bicyclo[1.1.1]pentan-1-yl}acetamide]	> 2	
O=C(COc1ccc(F)cc1)NC12CCC(NC(=O)COc3ccc(Cl)cc3)(CC1)[C@@H](O)C2 [Compound 616, 2-(4-chlorophenoxy)-N-{(2S)-4-[2-(4-fluorophenoxy)acetamido]-2-hydroxybicyclo[2.2.2]octan-1-yl}acetamide]	< 0.01	
COc1ncc(OCC(=O)NC23CCC(NC(=O)COc4ccc(Cl)c(F)c4)(CC2)C(=O)N3)cn1 [Compound 690, 2-(4-chloro-3-fluorophenoxy)-N-(1-{2-[(2-methoxypyrimidin-5-yl)oxy]acetamido}-3-oxo-2-azabicyclo[2.2.2]octan-4-yl)acetamide]	0.25 to 0.5	
O=C(COCc1cccc(C(=O)O)c1)NC12CC(NC(=O)COc3ccc(Cl)c(F)c3)(C1)C2 [Compound 212, 3-{[2-({3-[2-(4-chloro-3-fluorophenoxy)acetamido]bicyclo[1.1.1]pentan-1-yl}amino)-2-oxoethoxy]methyl}benzoic Acid]	> 2	
O=C(COc1ccc(Cl)c(F)c1)NC12CCC(NC(=O)COc3ncn(-c4ccc(Cl)cc4)n3)(CC1)[C@@H](O)C2 [Compound 516, 2-(4-chloro-3-fluorophenoxy)-N-[(3S)-4-(2-{[1-(4-chlorophenyl)-1H-1,2,4-triazol-3-yl]oxy}acetamido)-3-hydroxybicyclo[2.2.2]octan-1-yl]acetamide]	> 2	
Cc1cc(OCC(=O)NC23CCC(NC(=O)COc4ccc(Cl)c(F)c4)(CC2)[C@@H](O)C3)ccc1F [Compound 814, 2-(4-chloro-3-fluorophenoxy)-N-{(2S)-4-[2-(4-fluoro-3-methylphenoxy)acetamido]-2-hydroxybicyclo[2.2.2]octan-1-yl}acetamide]	< 0.01	
O=C(COc1ccc(Cl)c(F)c1)NC12CCC(NC(=O)CCOc3ccc(Cl)c(F)c3)(CC1)[C@@H](O)C2 [Compound 650, 3-(4-chloro-3-fluorophenoxy)-N-{(2S)-4-[2-(4-chloro-3-fluorophenoxy)acetamido]-2-hydroxybicyclo[2.2.2]octan-1-yl}propanamide]	< 0.01	
N#CC(COc1ccc(Cl)cc1)NC12CCC(NC(=O)COc3ccc(Cl)c(F)c3)(CC1)[C@@H](O)C2 (stereo partly drawn) [Compound 699, 2-(4-chloro-3-fluorophenoxy)-N-[(2S)-4-{[2-(4-chlorophenoxy)-1-cyanoethyl]amino}-2-hydroxybicyclo[2.2.2]octan-1-yl]acetamide]	0.01 to 0.05	
Cc1cc(C)cc(OCC(=O)NC23CCC(NC(=O)COc4ccc(Cl)c(F)c4)(CC2)[C@@H](O)C3)c1 [Compound 470, 2-(4-chloro-3-fluorophenoxy)-N-{(2S)-4-[2-(3,5-dimethylphenoxy)acetamido]-2-hydroxybicyclo[2.2.2]octan-1-yl}acetamide]	0.01 to 0.05	
O=C(COc1ccc(Cl)c(F)c1)NC12CCC(NC(=O)COc3ccc(Cl)c(F)c3)(CC1)C(O)C2 (stereo not shown) [Compound 273, N,N′-(2-hydroxybicyclo[2.2.2]octane-1,4-diyl)bis[2-(4-chloro-3-fluorophenoxy)acetamide]]	< 0.01	
Cc1ccc(OC(=O)NC23CCC(NC(=O)COc4ccc(Cl)c(F)c4)(CC2)CC3O)cc1 (stereo not shown) [Compound 433, 4-methylphenyl {4-[2-(4-chloro-3-fluorophenoxy)acetamido]-2-hydroxybicyclo[2.2.2]octan-1-yl}carbamate]	0.05 to 0.25	
COC(=O)c1ccc(OCC(=O)NC23CC(NC(=O)COc4ccc(Cl)c(F)c4)(C2)C3)cn1 [Compound 264, methyl 5-[2-({3-[2-(4-chloro-3-fluorophenoxy)acetamido]bicyclo-[1.1.1]pentan-1-yl}amino)-2-oxoethoxy]pyridine-2-carboxylate]	0.5 to 2	
COc1ccc(COCC(=O)NC23CC(NC(=O)COc4ccc(Cl)c(F)c4)(C2)C3)cn1 [Compound 281, 2-(4-chloro-3-fluorophenoxy)-N-(3-{2-[(6-methoxypyridin-3-yl)methoxy]acetamido}bicyclo[1.1.1]pentan-1-yl)acetamide]	0.5 to 2	
O=C(COc1ccc(F)c(F)c1)NC12CCC(NC(=O)COc3ccc(F)c(F)c3)(CC1)[C@@H](O)C2 [Compound 683, N,N′-[(2S)-2-hydroxybicyclo[2.2.2]octane-1,4-diyl]bis[2-(3,4-difluorophenoxy)acetamide]]		< 0.01

SMILES	EC50 (Homo sapiens, HEK-293T) [µM]	EC50 [µM]
CS(=O)(=O)c1cc(OCC(=O)NC23CCC(NC(=O)COc4ccc(F)cc4)(CC2)[C@@H](O)C3)ccc1F [Compound 819, 2-[4-fluoro-3-(methanesulfonyl)phenoxy]-N-{(3S)-4-[2-(4-fluorophenoxy)acetamido]-3-hydroxybicyclo[2.2.2]octan-1-yl}acetamide]	0.5 to 2	
CS(=O)(=O)c1ccc(OCC(=O)NC23CCC(NC(=O)COc4ccc(F)cc4)(CC2)[C@@H](O)C3)cc1F [Compound 767, 2-[3-fluoro-4-(methanesulfonyl)phenoxy]-N-{(3S)-4-[2-(4-fluorophenoxy)acetamido]-3-hydroxybicyclo[2.2.2]octan-1-yl}acetamide]	0.25 to 0.5	
O=C(COCCc1cccc(F)c1)NC12CC(NC(=O)COc3ccc(Cl)c(F)c3)(C1)C2 [Compound 132, 2-(4-chloro-3-fluorophenoxy)-N-(3-{2-[2-(3-fluorophenyl)ethoxy]acetamido}-bicyclo[1.1.1]pentan-1-yl)acetamide]	0.05 to 0.25	
COc1cc(OCC(=O)NC23CCC(NC(=O)COc4ccc(F)c(F)c4)(CC2)C[C@@H]3O)ccc1F [Compound 770, 2-(3,4-difluorophenoxy)-N-{(3S)-4-[2-(4-fluoro-3-methoxyphenoxy)acetamido]-3-hydroxybicyclo[2.2.2]octan-1-yl}acetamide]	< 0.01	
Cc1cc(OCC(=O)NC23CCC(NC(=O)COc4ccc(Cl)c(F)c4)(CC2)[C@@H](O)C3)no1 [Compound 665, 2-(4-chloro-3-fluorophenoxy)-N-[(2S)-2-hydroxy-4-{2-[(5-methyl-1,2-oxazol-3-yl)oxy]acetamido}bicyclo[2.2.2]octan-1-yl]acetamide]	0.01 to 0.05	
O=C(COc1ccc(F)c(Cl)c1)NC12CC(NC(=O)COc3ccc(Cl)c(Cl)c3)(C1)C2 [Compound 533, 2-(3-chloro-4-fluorophenoxy)-N-{3-[2-(3,4-dichlorophenoxy)acetamido]bicyclo[1.1.1]pentan-1-yl}acetamide]	< 0.01	
O=C(COc1ccc(Cl)c(Cl)c1)NC12CC(NC(=O)OCCc3cccc(Cl)c3)(C1)C2 [Compound 173, 2-(3-chlorophenyl)ethyl {3-[2-(3,4-dichlorophenoxy)acetamido]-bicyclo[1.1.1]pentan-1-yl}carbamate]	0.05 to 0.25	
CC(C)(C)OC(=O)CN(CC(=O)NC12CC(NC(=O)COc3ccc(Cl)c(F)c3)(C1)C2)c1ccc(Cl)cc1 [Compound 685, tert-butyl {[2-({3-[2-(4-chloro-3-fluorophenoxy)acetamido]bicyclo[1.1.1]pentan-1-yl}amino)-2-oxoethyl](4-chlorophenyl)amino}acetate]	> 2	
COc1cc(OCC(=O)NC23CCC(NC(=O)COc4ccc(Cl)c(F)c4)(CC2)C[C@@H]3O)ccc1Cl [Compound 528, 2-(4-chloro-3-fluorophenoxy)-N-{(3S)-4-[2-(4-chloro-3-methoxyphenoxy)acetamido]-3-hydroxybicyclo[2.2.2]octan-1-yl}acetamide]	< 0.01	
O=C(COc1ccc(F)c(C(F)(F)F)c1)NC12CCC(NC(=O)COc3ccc(F)c(C(F)(F)F)c3)(CC1)[C@@H](O)C2 [Compound 823, N,N′-[(2S)-2-hydroxybicyclo[2.2.2]octane-1,4-diyl]bis{2-[4-fluoro-3-(trifluoromethyl)phenoxy]acetamide}]	< 0.01	
CN(C(=O)COc1ccc(Cl)c(F)c1)C12CCC(NC(=O)COc3ccc(Cl)c(F)c3)(CC1)C[C@@H]2O [Compound 375, 2-(4-chloro-3-fluorophenoxy)-N-{(2S)-4-[2-(4-chloro-3-fluorophenoxy)acetamido]-2-hydroxybicyclo[2.2.2]octan-1-yl}-N-methylacetamide]	0.05 to 0.25	
CC(C)(C)c1ccc(OCC(=O)NC23CCC(NC(=O)COc4ccc(Cl)c(F)c4)(CC2)[C@@H](O)C3)cc1 [Compound 477, 2-(4-tert-butylphenoxy)-N-{(3S)-4-[2-(4-chloro-3-fluorophenoxy)acetamido]-3-hydroxybicyclo[2.2.2]octan-1-yl}acetamide]	> 2	
Cc1cc(OCC(=O)NC23CC(NC(=O)COc4ccc(Cl)c(F)c4)(C2)C3)cnc1Cl [Compound 226, 2-(4-chloro-3-fluorophenoxy)-N-(3-{2-[(6-chloro-5-methylpyridin-3-yl)oxy]acetamido}bicyclo[1.1.1]pentan-1-yl)acetamide]	0.01 to 0.05	
O=C(COc1ccc(Cl)c(F)c1)NC12CCC(NC(=O)COc3ccc(Cl)c(F)c3)(CC1)C(N1CC(O)C1)C2 (stereo not shown) [Compound 719, N,N′-[2-(3-hydroxyazetidin-1-yl)bicyclo[2.2.2]octane-1,4-diyl]bis[2-(4-chloro-3-fluorophenoxy)acetamide]]	0.01 to 0.05	
NC1CC2(NC(=O)COc3ccc(Cl)c(F)c3)CCC1(NC(=O)COc1ccc(Cl)c(F)c1)CC2 (stereo not shown) [Compound 357, N,N′-(2-aminobicyclo[2.2.2]octane-1,4-diyl)bis[2-(4-chloro-3-fluorophenoxy)acetamide]]	< 0.01	
